Reference: patent US10087188B2, “Benzamide imidazopyrazine Btk inhibitors” (MERCK SHARP & DOHME CORP., priority 2014, dated 2018)

Assays:
[1] = target: BTK enzyme (recombinant full-length BTK, hBTK) (Homo sapiens (Human), UniProt Q06187); assay: Btk enzyme activity assay, LANCE TR-FRET; type: biochemical; settings: 50 pM hBTK, 2 μM biotin-A5-peptide, 25 μM ATP; 60 minute compound & enzyme incubation; read-out: BTK binding IC50
Protocol: Btk Enzyme Activity Assay Methods
BTK enzymatic activity was determined with the LANCE (Lanthanide Chelate Excite) TR-FRET (Time-resolved fluorescence resonance energy transfer) assay. […] After 60 minutes incubation with detection reagents, reaction plates were read on a PerkinElmer EnVision plate reader using standard TR-FRET protocol.

[2] = test system: HeLa cells; assay: [3H] Adenosine uptake assay; type: cell-based; settings: Homo sapiens, HeLa, accumulation of tritiated adenosine into HeLa cells; compound concentration range 10 μM to 0.032 nM; read-out: ADU inhibition IC50 (adenosine uptake inhibition potency)
In short: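 HeLa cells in HBSS + 5% FBS preincubated 30 min at ambient temperature with compound (0.25% DMSO), then [3H]adenosine (500 nM stock) added for 60 min. Uptake measured by scintillation proximity counting; IC50 from 4-parameter fit of counts vs log concentration.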

Sequence of BTK enzyme (recombinant full-length BTK, hBTK) (Q06187 whole entry): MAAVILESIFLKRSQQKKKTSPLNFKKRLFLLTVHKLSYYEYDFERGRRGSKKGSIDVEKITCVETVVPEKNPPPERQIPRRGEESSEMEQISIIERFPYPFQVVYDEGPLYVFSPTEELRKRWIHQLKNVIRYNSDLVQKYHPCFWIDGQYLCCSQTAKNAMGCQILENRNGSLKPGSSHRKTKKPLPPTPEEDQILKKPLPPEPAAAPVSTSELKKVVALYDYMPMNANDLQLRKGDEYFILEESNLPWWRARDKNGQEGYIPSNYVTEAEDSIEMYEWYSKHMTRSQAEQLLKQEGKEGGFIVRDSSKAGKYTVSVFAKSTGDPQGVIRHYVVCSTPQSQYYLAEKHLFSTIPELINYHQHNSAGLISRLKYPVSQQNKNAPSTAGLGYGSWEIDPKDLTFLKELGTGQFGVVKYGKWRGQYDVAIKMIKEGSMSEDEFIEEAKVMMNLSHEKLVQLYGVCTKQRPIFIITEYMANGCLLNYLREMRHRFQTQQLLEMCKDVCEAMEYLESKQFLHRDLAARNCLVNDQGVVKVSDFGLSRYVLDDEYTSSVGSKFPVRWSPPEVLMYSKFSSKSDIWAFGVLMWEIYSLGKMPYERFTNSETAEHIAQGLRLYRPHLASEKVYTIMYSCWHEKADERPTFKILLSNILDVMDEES

Compound | IC50 [1] | IC50 [2]
Nc1nccn2c([C@H]3CC[C@@H](C(=O)N4CCC[C@H]4C(=O)O)C3)nc(-c3ccc(C(=O)Nc4cc(C(F)(F)F)ccn4)cc3)c12 [Example 17, 1-({(1R,3S)-3-[8-amino-1-(4-{[4-(trifluoromethyl)pyridin-2-yl]carbamoyl}phenyl)imidazo[1,5-a]pyrazin-3-yl]cyclopentyl}carbonyl)-L-proline] | 1.9 nM | 10000 nM
CCOc1cc(C(=O)Nc2cc(C(F)(F)F)n(C)n2)ccc1-c1nc([C@H]2CC[C@@](C(=O)O)(C(C)C)C2)n2ccnc(N)c12 [Example 53, (1S,3S)-3-[8-amino-1-(2-ethoxy-4-{[1-methyl-5-(trifluoromethyl)-1H-pyrazol-3-yl]carbamoyl}phenyl)imidazo[1,5-a]pyrazin-3-yl]-1-(1-methylethyl) cyclopentane-carboxylic acid] | 0.87 nM | 10000 nM
Nc1nccn2c([C@H]3CC[C@H]4[C@H](C(=O)O)[C@H]43)nc(-c3ccc(C(=O)Nc4cc(C(F)(F)F)ccn4)cc3)c12 [Example 57, (1R,2S,5R,6S)-2-[8-amino-1-(4-{[4-(trifluoromethyl)pyridin-2-yl]carbamoyl}phenyl)imidazo[1,5-a]pyrazin-3-yl]bicyclo[3.1.0] hexane-6-carboxylic acid] | 3.2 nM | 10000 nM
CCOc1cc(C(=O)Nc2cc(C(F)(F)F)ccn2)ccc1-c1nc([C@@H]2CC[C@@](C(=O)O)(C(C)C)C2)n2ccnc(N)c12 [Example 60, (1S,3R)-3-[8-amino-1-(2-ethoxy-4-{[4-(trifluoromethyl)pyridin-2-yl]carbamoyl}phenyl)imidazo[1,5-a]pyrazin-3-yl]-1-(1-methylethyl) cyclopentane-carboxylic acid] | 7.5 nM | 10000 nM
C[C@]1(C(=O)O)CC[C@@](C)(c2nc(-c3ccc(C(=O)Nc4cc(C(F)(F)F)ccn4)cc3)c3c(N)nccn23)C1 [Example 80, (1S,3R)-3-[8-amino-1-(4-{[4-(trifluoromethyl)pyridin-2-yl]carbamoyl}phenyl)imidazo[1,5-a]pyrazin-3-yl]-1,3-dimethylcyclopentane carboxylic acid] | 2.4 nM | 9480 nM
CN1CC[C@H](c2nc(-c3ccc(C(=O)Nc4cc(C(F)(F)F)ccn4)cc3)c3c(N)nccn23)C[C@@H]1C(=O)O [Example 83, (2R.4S)-4-[8-amino-1-(4-{[4-(trifluoromethyl)pyridin-2-yl]carbamoyl}phenyl)imidazo[1,5-a]pyrazin-3-yl]-1-methylpiperidine-2-carboxylic acid] | 10.2 nM | 1140 nM
CCOc1cc(C(=O)Nc2cc(C(F)(F)F)ccn2)ccc1-c1nc([C@]23CC[C@](C(=O)O)(CC2O)C(O)C3)n2ccnc(N)c12 (stereo partly drawn) [Example 73, (1S,4R)-4-[8-amino-1-(2-ethoxy-4-{[4-(trifluoromethyl)pyridin-2-yl]carbamoyl}phenyl)imidazo[1,5-a]pyrazin-3-yl]-2,5-dihydroxybicyclo [2.2.2]octane-1-carboxylic acid] | 8.8 nM | 3650 nM
Nc1nccn2c(C34C5C6C3C3C4C5C63C(=O)O)nc(-c3ccc(C(=O)Nc4cc(C5CC5)ccn4)cc3F)c12 (centres unmarked) [Example 74, 4-(8-amino-1-(4-((4-cyclopropylpyridin-2-yl)carbamoyl)-2-fluorophenyl)imidazo [1,5-a]pyrazin-3-yl)cubane-1-carboxylic acid] | 0.54 nM | 113 nM
C[C@]1(C(=O)O)CC[C@](C)(c2nc(-c3ccc(C(=O)Nc4cc(C(F)(F)F)ccn4)cc3)c3c(N)nccn32)CC1 [Example 30, trans-4-(8-amino-1-(4-((4-(trifluoromethyl)pyridin-2-yl)carbamoyl)phenyl)imidazo[1,5-a]pyrazin-3-yl)-1,4-dimethylcyclohexanecarboxylic acid] | 0.74 nM | 1450 nM
Nc1nccn2c(C34CCCC(C(=O)O)(CC3)CC4)nc(-c3ccc(C(=O)Nc4cc(C(F)(F)F)ccn4)cc3)c12 [Example 68, 5-[8-amino-1-(4-{[4-(trifluoromethyl)pyridin-2-yl]carbamoyl}phenyl)imidazo[1,5-a]pyrazin-3-yl]bicyclo[3.2.2] nonane-1-carboxylic acid] | 0.23 nM | 274 nM
CCOc1cc(C(=O)Nc2cc(C(F)(F)F)ccn2)ccc1-c1nc(C2CC3(CC(C(=O)O)C3)C2)n2ccnc(N)c12 (centres unmarked) [Example 93, 6-[8-amino-1-(2-ethoxy-4-{[4-(trifluoromethyl)pyridin-2-yl]carbamoyl}phenyl)imidazo[1,5-a]pyrazin-3-yl]spiro[3.3]heptane-2-carboxylic acid] | 0.51 nM | 4640 nM

Now from value to compound:

IC50 [1] | IC50 [2] | Compound
0.38 nM | 1490 nM | Nc1nccn2c(C34CCC(C(=O)O)(CC3)CC4)nc(-c3ccc(C(=O)Nc4cc(C(F)(F)F)ccn4)cc3Cl)c12 [Example 151, 4-[8-amino-1-(2-chloro-4-{[4-(trifluoromethyl)pyridin-2-yl]carbamoyl}phenyl)imidazo[1,5-a]pyrazin-3-yl]bicyclo[2.2.2] octane-1-carboxylic acid]
0.57 nM | 10000 nM | CCOc1cc(C(=O)Nc2cc(C3CC3)ccn2)cc(F)c1-c1nc([C@@]2(C)CC[C@](C)(C(=O)O)C2)n2ccnc(N)c12 [Example 123, (1S,3S)-3-(8-amino-1-{4-[(4-cyclopropylpyridin-2-yl)carbamoyl]-2-ethoxy-6-fluorophenyl}imidazo [1,5-a]pyrazin-3-yl)-1,3-dimethylcyclopentane carboxylic acid]
0.48 nM | 5940 nM | CCOc1cc(C(=O)Nc2cc(C(F)(F)F)ccn2)cc(F)c1-c1nc([C@@H]2CC[C@](C)(C(=O)O)C2(C)C)n2ccnc(N)c12 [Example 113, (1S,3R)-3-[8-amino-1-(2-ethoxy-6-fluoro-4-{[4-(trifluoromethyl)pyridin-2-yl]carbamoyl}phenyl)imidazo[1,5-a]pyrazin-3-yl]-1,2,2-trimethylcyclopentane carboxylic acid]
3.9 nM | 10000 nM | CCOc1cc(C(=O)Nc2cc(C(F)(F)F)ccn2)ccc1-c1nc(C23CCC(C(=O)O)(CC2O)C(O)C3)n2ccnc(N)c12 (centres unmarked) [Example 174, 4-(8-amino-1-(2-ethoxy-4-((4-(trifluoromethyl)pyridin-2-yl)carbamoyl)phenyl)imidazo[1,5-a]pyrazin-3-yl)-2,5-dihydroxybicyclo[2.2.2]octane-1-carboxylic acid]
0.74 nM | 781 nM | CC(C)[C@]1(C(=O)O)CC[C@@H](c2nc(-c3ccc(C(=O)Nc4cc(C(F)(F)F)ccn4)cc3)c3c(N)ncc(Cl)n23)C1 [Example 106, (1S.3R)-3-[8-amino-5-chloro-1-(4-{[4-(trifluoromethyl)pyridin-2-yl]carbamoyl}phenyl)imidazo[1,5-a]pyrazin-3-yl]-1-(1-methylethyl) cyclopentane-carboxylic acid]
1 nM | 10000 nM | C[C@H]1CO[C@@H](c2nc(-c3ccc(C(=O)Nc4cc(C(F)F)ccn4)cc3)c3c(N)nccn23)CN1[C@H]1CC[C@](C)(C(=O)O)CC1 [Example 206, trans-4-{(2R,5S)-2-[8-amino-1-(4-{[4-(difluoromethyl)pyridin-2-yl]carbamoyl}phenyl)imidazo [1,5-a]pyrazin-3-yl]-5-methylmorpholin-4-yl}-1-methylcyclohexanecarboxylic acid]
10.5 nM | 2030 nM | C[C@]1(C(=O)O)CC[C@@H](N2CCO[C@@H](c3nc(-c4ccc(C(=O)Nc5cc(C6CC6)ccn5)cc4F)c4c(N)nccn34)C2)CC1 [Example 198, cis-4-[(2R)-2-(8-amino-1-{4-[(4-cyclopropylpyridin-2-yl)carbamoyl]-2-fluorophenyl}imidazo[1,5-a]pyrazin-3-yl)morpholin-4-yl]-1-methylcyclohexanecarboxylic acid]
0.41 nM | 531 nM | Nc1nccn2c(C34CCC(C(=O)O)(CC3)CC4)nc(-c3ccc(C(=O)Nc4cc(C(F)(F)F)ccn4)cc3O)c12 [Example 161, 4-[8-amino-1-(2-hydroxy-4-{[4-(trifluoromethyl)pyridin-2-yl]carbamoyl}phenyl)imidazo[1,5-a]pyrazin-3-yl]bicyclo[2.2.2] octane-1-carboxylic acid]
5.9 nM | 2020 nM | Cc1cnc(N)c2c(-c3ccc(C(=O)Nc4ccccn4)cc3)nc([C@H]3CN([C@H]4CC[C@](C)(C(=O)O)CC4)CCO3)n12 [Example 199, trans-4-[(2R)-2-{8-amino-5-methyl-1-[4-(pyridin-2-ylcarbamoyl)phenyl]imidazo [1,5-a]pyrazin-3-yl}morpholin-4-yl]-1-methylcyclohexanecarboxylic acid]
0.52 nM | 1880 nM | CCOc1cc(C(=O)Nc2cc(C(F)(F)F)ccn2)ccc1-c1nc(C23CCC(C(=O)O)(CC2)C3)n2ccnc(N)c12 [Example 103, 4-[8-amino-1-(2-ethoxy-4-{[4-(trifluoromethyl)pyridin-2-yl]carbamoyl}phenyl)imidazo[1,5-a]pyrazin-3-yl]bicyclo[2.2.1] heptane-1-carboxylic acid]
1.3 nM | 10000 nM | COc1cc(C(=O)Nc2cc(C(F)(F)F)ccn2)cc(F)c1-c1nc(C2(C)CCC(C)(C(=O)O)CC2)n2ccnc(N)c12 (centres unmarked) [Example 127, 4-[8-amino-1-(2-fluoro-6-methoxy-4-{[4-(trifluoromethyl)pyridin-2-yl]carbamoyl}phenyl)imidazo[1,5-a]pyrazin-3-yl]-1,4-dimethylcyclohexane-carboxylic acid]
